In ChEMBL document CHEMBL3588798, “Non-peptide ligand binding to the formyl peptide receptor FPR2--A comparison to peptide ligand binding modes” (Bioorg Med Chem, 2015):

Legend:
[1] = biological target: T1, N-formyl peptide receptor 2 (Homo sapiens, UniProt P25090); experiment: Agonist activity against human FPR2 expressed in human HL60 cells by Fluo-4AM dye based intracellular Ca2+ mobilization assay; assay type: functional, cell-based, HL-60
T1 sequence (P25090 whole entry): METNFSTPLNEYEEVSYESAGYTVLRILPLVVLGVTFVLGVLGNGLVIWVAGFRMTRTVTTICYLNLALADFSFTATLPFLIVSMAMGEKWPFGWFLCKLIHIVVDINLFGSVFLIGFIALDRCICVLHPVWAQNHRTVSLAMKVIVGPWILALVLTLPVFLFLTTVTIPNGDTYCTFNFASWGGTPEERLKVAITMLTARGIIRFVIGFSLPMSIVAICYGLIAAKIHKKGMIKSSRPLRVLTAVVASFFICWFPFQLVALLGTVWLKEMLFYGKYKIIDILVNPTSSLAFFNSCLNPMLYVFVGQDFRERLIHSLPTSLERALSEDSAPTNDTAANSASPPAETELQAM

[2] = biological target: T1, N-formyl peptide receptor 2; experiment: Agonist activity at FPR2 (unknown origin) by Fluo4 florescence based intracellular Ca2+ mobilization assay; assay type: functional, cell-based
[3] = biological target: T1, N-formyl peptide receptor 2; experiment: Allosteric antagonist activity against FPR2 (unknown origin)
[4] = biological target: T1, N-formyl peptide receptor 2; experiment: Antagonist activity against human FPR2 expressed in rat RBL-2H3 cells pre-treated for 15 mins before addition of WKYMVm or C1 by intracellular Ca2+ mobilization assay; assay type: functional, cell-based
[5] = biological target: T1, N-formyl peptide receptor 2; experiment: Agonist activity at human FPR2 expressed in rat RBL-2H3 cells by intracellular Ca2+ mobilization assay; assay type: functional, cell-based
[6] = biological target: T1, N-formyl peptide receptor 2; experiment: Antagonist activity against FPR2 (unknown origin) pre-treated for 5 mins before addition of Wpep by Fluo4 florescence based intracellular Ca2+ mobilization assay; assay type: functional, cell-based

Row | SMILES | EC50 [1] | further results
1 | COc1ccc(CCNC(=O)Nc2ccccc2)cc1 | 3000 nM | 
2 | COc1ccc(CCNC(=O)Nc2ccc(Cl)cc2)cc1 | 400 nM | 
3 | COc1ccc2[nH]c(SCC(=O)Nc3ccc(OC)c(OC)c3)nc2c1 | 4700 nM | 
4 | CCC[C@H]1CNC(=O)C(=O)N1C[C@@H]1CCCN1C[C@@H](Cc1ccc2ccccc2c1)N1C[C@@H](Cc2ccc(O)cc2)N(CC2CCCCC2)C(=O)C1=O |  | EC50 [2]: 140 nM
5 | O=C(Nc1ccc(Br)cc1)N[C@@H](Cc1ccccc1)C(=O)N1CCCC1 | 140 nM | 
6 | O=C(Nc1ccc(Br)cc1)N[C@@H](Cc1ccccc1)C(=O)N1CCCCC1 | 40 nM | 
7 | O=C(Nc1ccc(Cl)cc1)N[C@@H](Cc1ccccc1)C(=O)N1CCCCC1 | 50 nM | 
8 | CSc1ccc(NC(=O)N[C@@H](Cc2ccccc2)C(=O)N2CCCCC2)cc1 | 300 nM | 
9 | O=C(Nc1ccc(Br)cc1)N[C@@H](Cc1ccccc1)C(=O)NN1CCCCNC1=O | 4 nM | 
10 | CCCCCCCCCCCCCCCC(=O)N[C@@H](CCCCN)C(=O)N(CCC(=O)N[C@@H](CCCCN)C(=O)N(CCC(=O)N[C@@H](CCCCN)C(=O)N(CCC(=O)N[C@@H](CCCCN)C(=O)N(CCC(=O)N[C@@H](CCCCN)C(=O)N(CCC(=O)N[C@@H](CCCCN)C(=O)N(CCC(N)=O)[C@@H](C)c1ccccc1)[C@@H](C)c1ccccc1)[C@@H](C)c1ccccc1)[C@@H](C)c1ccccc1)[C@@H](C)c1ccccc1)[C@@H](C)c1ccccc1 |  | IC50 [3]: 50 nM
11 | CCOC(=O)C1CCCN(C(=O)[C@H](Cc2ccccc2)NC(=O)Nc2ccc(Br)cc2)C1 (stereo partly drawn) | 7 nM | 
12 | CCOC(=O)C1CCN(C(=O)[C@H](Cc2ccccc2)NC(=O)Nc2ccc(Br)cc2)CC1 | 160 nM | 
13 | O=C(Nc1ccc(Br)cc1)N[C@@H](Cc1ccccc1)C(=O)N1CCc2ccccc21 | 250 nM | 
14 | COc1ccc2[nH]c(SCC(=O)Nc3ccc(C(C)=O)cc3)nc2c1 | 6000 nM | 
15 | COC(=O)Nc1cccc(NC(=O)CSc2nc3cc(OC)ccc3[nH]2)c1 | 7300 nM | 
16 | CCOc1ccc2[nH]c(SCC(=O)Nc3ccccc3SC)nc2c1 | 8000 nM | 
17 | COc1ccc2[nH]c(SCC(=O)Nc3ccccc3Cl)nc2c1 | 10000 nM | 
18 | CCCCOc1ccc(C(=O)NN2Cc3ccccc3NC2c2ccc(O)cc2)cc1 (stereo not drawn) |  | IC50 [4]: 6650 nM
19 | CCCCOc1ccc(C(=O)NN2Cc3ccccc3NC2c2ccc(C)cc2)cc1 (stereo not drawn) |  | EC50 [5]: 1480 nM; IC50 [4]: 170 nM
20 | CCCCOc1ccc(C(=O)NN2Cc3ccccc3NC2c2ccc(OC)cc2)cc1 (stereo not drawn) |  | EC50 [5]: 470 nM; IC50 [4]: 90 nM
21 | CC(C)[C@H]1CNC(=O)C(=O)N1C[C@@H]1CCCN1C[C@@H](Cc1ccc2ccccc2c1)N1C[C@@H](Cc2ccc(O)cc2)N(CC2CCCCC2)C(=O)C1=O |  | IC50 [6]: 80 nM

More lines, main results first:

Row | EC50 [1] | SMILES | further results
22 | 900 nM | COc1ccc(CCNC(=O)Nc2ccc(F)cc2)cc1 | 
23 | 100 nM | COc1ccc(CCNC(=O)Nc2ccc(Br)cc2)cc1 | 
24 | 130 nM | CCOC(=O)C1CCN(C(=O)[C@H](Cc2c[nH]c3ccccc23)NC(=O)Nc2ccc(Br)cc2)CC1 | 
25 | 4030 nM | COc1ccc2[nH]c(SCC(=O)Nc3ccccc3Br)nc2c1 | 
26 | 3200 nM | CCc1ccc(NC(=O)CSc2nc3cc(OC)ccc3[nH]2)cc1 | 
